In one assay the target is CK2 (Homo sapiens, UniProt P68400). The assay is described as follows: CK2 inhibition, biochemical chemiluminescence holoenzyme assay (Kinase Glo, IC50 determination). The following applies: Table 1 activity class; symbol given only if active; read-out: CK2 IC50 (Activity C). In a few lines:
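Holoenzyme CK2 assay; compounds pre-incubated with substrate and enzyme, then reacted 150 min at 24-27° C. Remaining ATP measured as luminescence with Kinase Glo, and IC50 derived from the signal.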

Assay [1] deals with PIM (PIM-1, PIM-2, and/or PIM-3). The assay is described as follows: PIM-1, PIM-2 and PIM-3 inhibition, biochemical chemiluminescence assays (Kinase Glo, IC50 determination). The following applies: Table 1 activity class; PIM refers to PIM-1, PIM-2, and/or PIM-3; read-out: PIM IC50 (Activity B).

CK2, sequence (P68400 whole entry): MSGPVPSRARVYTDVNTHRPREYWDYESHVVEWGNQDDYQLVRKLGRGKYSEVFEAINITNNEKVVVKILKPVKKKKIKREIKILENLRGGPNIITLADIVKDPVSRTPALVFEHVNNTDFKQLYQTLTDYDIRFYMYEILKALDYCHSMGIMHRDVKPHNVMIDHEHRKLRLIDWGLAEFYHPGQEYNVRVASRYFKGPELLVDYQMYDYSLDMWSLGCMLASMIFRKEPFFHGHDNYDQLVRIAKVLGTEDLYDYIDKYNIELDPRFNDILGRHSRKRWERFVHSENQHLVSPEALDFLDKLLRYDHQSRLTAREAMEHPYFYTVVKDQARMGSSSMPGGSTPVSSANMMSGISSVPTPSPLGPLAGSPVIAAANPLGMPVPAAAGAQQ
CK2, sequence (P67870 whole entry partner): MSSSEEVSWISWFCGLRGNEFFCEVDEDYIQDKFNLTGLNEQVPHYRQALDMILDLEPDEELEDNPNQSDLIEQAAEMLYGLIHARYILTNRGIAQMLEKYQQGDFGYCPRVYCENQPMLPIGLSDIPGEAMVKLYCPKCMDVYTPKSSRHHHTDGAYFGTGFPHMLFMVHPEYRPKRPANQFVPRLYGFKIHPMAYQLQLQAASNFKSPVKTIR

Turning to `CC(=O)N1CCN(Cc2nc3c(oc4ccc(Br)cc43)c(=O)[nH]2)CC1` [Compound 187, 2-[(4-acetylpiperazin-1-yl)methyl]-8-bromo[1]benzofuro[3,2-d]pyrimidin-4(3H)-one], the IC50 (on CK2; in assay [1]) was less than 10 µM in each case.

Take `CN(C)c1cccc(CNCc2nc3c(oc4ccc(Br)cc43)c(=O)[nH]2)c1` [Compound 21, 8-bromo-2-[({[3-(dimethylamino)phenyl]methyl}amino)methyl][1]benzofuro[3,2-d]pyrimidin-4(3H)-one]: the IC50 (on CK2; in assay [1]) was less than 10 µM throughout.

For the compound `COc1ccc(CNCc2nc3c(oc4ccc(Br)cc43)c(=O)[nH]2)cc1` [Compound 261, 8-bromo-2-[({[4-(methyloxy)phenyl]methyl}amino)methyl][1]benzofuro[3,2-d]pyrimidin-4(3H)-one], the IC50 (on CK2; in assay [1]) was less than 10 µM throughout.

In the case of `CC(C)(C)OC(=O)NC1CCC(c2nc3c(oc4ccc(Br)cc43)c(=O)[nH]2)CC1` (stereo not drawn) [Compound 222, 1,1-Dimethylethyl [4-(8-bromo-4-oxo-3,4-dihydro[1]benzofuro[3,2-d]pyrimidin-2-yl)cyclohexyl]carbamate], the IC50 (on CK2; in assay [1]) was less than 10 µM each time.

With `O=C(c1ccc2[nH]cnc2c1)N1CCC(c2nc3c(oc4ccc(Br)cc43)c(=O)[nH]2)CC1` [Compound 208, 2-[1-(1H-benzimidazol-5-ylcarbonyl)piperidin-4-yl]-8-bromo[1]benzofuro[3,2-d]pyrimidin-4(3H)-one], the half-maximal inhibitory concentration (IC50) (at CK2; in assay [1]) was less than 10 µM in each case.

For `O=C(Nc1ccc(-c2nc3c(oc4ccc(Br)cc43)c(=O)[nH]2)c(Cl)c1)c1cccnc1` [Compound 292, N-[4-(8-bromo-4-oxo-3,4-dihydro[1]benzofuro[3,2-d]pyrimidin-2-yl)-3-chlorophenyl]pyridine-3-carboxamide], the IC50 (on CK2; in assay [1]) was less than 10 µM each time.

As for `O=C(Nc1ccc(Cl)c(-c2nc3c(oc4ccc(Br)cc43)c(=O)[nH]2)c1)c1ccoc1` [Compound 342, N-[3-(8-bromo-4-oxo-3,4-dihydro[1]benzofuro[3,2-d]pyrimidin-2-yl)-4-chlorophenyl]furan-3-carboxamide], the IC50 (at CK2; in assay [1]) was less than 10 µM each time.

Regarding `CN(C)CC(C)(C)CNc1ccc(-c2nc3c(oc4ccc(Br)cc43)c(=O)[nH]2)c(Cl)c1` [Compound 179, 8-bromo-2-(2-chloro-4-{[3-(dimethylamino)-2,2-dimethylpropyl]amino}phenyl)[1]benzofuro[3,2-d]pyrimidin-4(3H)-one], the IC50 (at CK2; in assay [1]) was less than 10 µM throughout.

Turning to `Cc1ccc2oc3c(=O)[nH]c(CN4CC[C@H](O)C4)nc3c2c1[N+](=O)O` [Compound 424, hydroxy(2-{[(3S)-3-hydroxypyrrolidin-1-yl]methyl}-8-methyl-4-oxo-3,4-dihydro[1]benzofuro[3,2-d]pyrimidin-9-yl)oxoammonium], the half-inhibitory concentration (IC50) (on CK2; in assay [1]) was less than 10 µM in each case.

In the case of `CN(Cc1nc2c(oc3ccc(Br)cc32)c(=O)[nH]1)c1ccccc1Cl` [Compound 18, 8-bromo-2-{[(2-chlorophenyl)(methyl)amino]methyl}[1]benzofuro[3,2-d]pyrimidin-4(3H)-one], the half-inhibitory concentration (IC50) (at CK2; in assay [1]) was less than 10 µM in each case.

With `O=c1[nH]c(CN2CCOCC2)nc2c1oc1ccc(Br)cc12` [Compound 24, 8-bromo-2-(morpholin-4-ylmethyl)[1]benzofuro[3,2-d]pyrimidin-4(3H)-one], the IC50 (at CK2; in assay [1]) was less than 10 µM throughout.

Consider `Cc1ccccc1CNc1ccc2oc3c(=O)[nH]c(CN4CC[C@H](O)C4)nc3c2c1` [Compound 461, 2-{[(3S)-3-hydroxypyrrolidin-1-yl]methyl}-8-{[(2-methylphenyl)methyl]amino}[1]benzofuro[3,2-d]pyrimidin-4(3H)-one], for which the IC50 (at CK2; in assay [1]) was less than 10 µM throughout.

Values taken from patent publication US20090247559A1 (Exelixis, Inc., priority 2007, published 2009).
